{"source": "patent EP0234499A2", "about": "“Antifungal azolylpropanol derivatives” (SHIONOGI SEIYAKU KABUSHIKI KAISHA, priority 1986, dated 1987)", "key": {"[1]": {"test_system": "Candida albicans KE-2", "assay": "Inhibition test against pseudomycelium formation of Candida albicans", "assay_type": "cell-based", "details": "minimum effective concentration preventing typical pseudomycelium formation, Eagle-MEM medium with 20 % calf serum, 1 x 10^6 yeast cells/ml, 18 hours at 37 °C, two fold dilution series; for minimal effective concentration: Candida albicans, KE2, read-out: Inhibition for Pseudomyselium Formation of Candida albicans (MEC, μg/ml)", "procedure": "Inhibition test against psendomycelium formation of Candida albicans Candida albicans KE-2 was inoculated to Eagle-MEM medium (Nissan 2 made by Nissui Seiyaku, Ltd.) supplemented with 20 % calf serum so that its final inoculum of yeast cell might be 1 x 10^6 yeast cells per milliliter. The test compounds are added thereon in two fold dilution series. After incubation for 18 hours at 37 °C, the fungal growth in each drug concentration is smeared and fixed on a slide glass, and its morphological feature on the presence or absence of the psendomycelium formation is examined by a microscope following Giemsa staining. Minimum effective concentration (MEC, µg/ml) is defined as the lowest concentration of the compound which prevented typical pseudo- mycelium formation."}, "[2]": {"test_system": "Candida albicans KE-2", "assay": "Therapeutic effect against experimental candidiasis in mice", "assay_type": "in vivo, Jcl-ICR female mice", "details": "mouse survival ratio on the 5th day after infection, 50 mg/kg orally three times (0, 4 and 24 hours after infection), i.v. infection with 2 x 10^6 cells, eight mice per group; for responders at 50 mg/kg: Candida albicans, KE2, po, 120 h; for Therapeutic Effect (%): 50 mg/kg", "procedure": "Therapeutic effect against experimental candidiasis in mice After Candida albicans KE-2 is incubated on Sabouraud's glucose agar at 28 °C for 48 hr., it is suspended in Sabouraud's glucose broth and the cells (2 ^x 10^6) are injected to a tail vein of Jcl-ICR female mice (4 weeks age; weight : 18 - 20 g). A suspension of the test compound in 2 % gum arabic is orally administered three times, immediately after infection of the yeast ( 0 hour), after 4 hours and after 24 hours, as a dosage of 50 mg/kg. Non-treated group is used as control. Eight mice per group are used in the control group and the treated group. All the mice in the control group died within 48 hours after infection. Therapeutic effect of the test compound is judged by mouse survival ratio on the 5th day after infection."}}}
{"smiles": "COC(n1cncn1)C(O)(Cn1cncn1)c1ccc(F)cc1F", "note": "(single isomer, unassigned) [Compound 21, 2-(2,4-Difluorophenyl)-1-methoxy-1,3-bis(1H-1,2,4-tri-azol-1-yl)-2-propanol]", "values": [{"measurement": "Inhibition for Pseudomyselium Formation of Candida albicans (MEC, μg/ml)", "setting": "[1]", "value": 0.63, "unit": "µg/mL"}, {"measurement": "responders at 50 mg/kg", "setting": "[2]", "value": 87.5, "unit": "%"}]}
{"smiles": "COC(n1ccnc1)C(O)(Cn1cncn1)c1ccc(Cl)cc1", "note": "(single isomer, unassigned) [Compound 23]", "values": [{"measurement": "minimal effective concentration", "setting": "[1]", "value": 0.63, "unit": "µg/mL"}]}
{"smiles": "COC(n1cncn1)C(O)(Cn1cncn1)c1ccc(F)cc1", "note": "(single isomer, unassigned) [Compound 24]", "values": [{"measurement": "minimal effective concentration", "setting": "[1]", "value": 1.25, "unit": "µg/mL"}, {"measurement": "responders at 50 mg/kg", "setting": "[2]", "value": 87.5, "unit": "%"}]}
{"smiles": "COC(n1cncn1)C(O)(Cn1cncn1)c1ccc(Cl)cc1Cl", "note": "(single isomer, unassigned) [Compound 25]", "values": [{"measurement": "minimal effective concentration", "setting": "[1]", "value": 0.31, "unit": "µg/mL"}, {"measurement": "responders at 50 mg/kg", "setting": "[2]", "value": 100, "unit": "%"}]}
{"smiles": "COC(n1cncn1)C(O)(Cn1cncn1)c1ccc(Cl)cc1", "note": "(single isomer, unassigned) [Compound 26]", "values": [{"measurement": "responders at 50 mg/kg", "setting": "[2]", "value": 100, "unit": "%"}]}
{"smiles": "COC(n1cccn1)C(O)(Cn1cncn1)c1ccc(F)cc1", "note": "(single isomer, unassigned) [Compound 27]", "values": [{"measurement": "responders at 50 mg/kg", "setting": "[2]", "value": 25, "unit": "%"}]}
{"smiles": "COC(n1cccn1)C(O)(Cn1ccnc1)c1ccc(F)cc1", "note": "(single isomer, unassigned) [Compound 28]", "values": [{"measurement": "Inhibition for Pseudomyselium Formation of Candida albicans (MEC, μg/ml)", "setting": "[1]", "value": 0.08, "unit": "µg/mL"}, {"measurement": "Therapeutic Effect (%)", "setting": "[2]", "value": 62.5, "unit": "%"}]}
{"smiles": "COC(n1cccn1)C(O)(Cn1ccnc1)c1ccc(F)cc1F", "note": "(single isomer, unassigned) [Compound 29]", "values": [{"measurement": "minimal effective concentration", "setting": "[1]", "value": 0.31, "unit": "µg/mL"}, {"measurement": "Therapeutic Effect (%)", "setting": "[2]", "value": 100.0, "unit": "%"}]}
{"smiles": "COC(n1cccn1)C(O)(Cn1ccnc1)c1ccc(F)cc1F", "note": "(single isomer, unassigned) [Compound 30]", "values": [{"measurement": "Inhibition for Pseudomyselium Formation of Candida albicans (MEC, μg/ml)", "setting": "[1]", "value": 0.31, "unit": "µg/mL"}, {"measurement": "Therapeutic Effect (%)", "setting": "[2]", "value": 50.0, "unit": "%"}]}
{"smiles": "COC(n1cccn1)C(O)(Cn1ccnc1)c1ccc(F)cc1", "note": "(single isomer, unassigned) [Compound 31]", "values": [{"measurement": "Inhibition for Pseudomyselium Formation of Candida albicans (MEC, μg/ml)", "setting": "[1]", "value": 1.25, "unit": "µg/mL"}, {"measurement": "Therapeutic Effect (%)", "setting": "[2]", "value": 37.5, "unit": "%"}]}
{"smiles": "OC(Cn1cncn1)(c1ccc(F)cc1)C(OCC(F)(F)F)n1cncn1", "note": "(single isomer, unassigned) [Compound 32]", "values": [{"measurement": "responders at 50 mg/kg", "setting": "[2]", "value": 50, "unit": "%"}]}
{"smiles": "CCOC(n1cncn1)C(O)(Cn1cncn1)c1ccc(F)cc1", "note": "(single isomer, unassigned) [Compound 33]", "values": [{"measurement": "minimal effective concentration", "setting": "[1]", "value": 1.25, "unit": "µg/mL"}]}
{"smiles": "COC(n1cccn1)C(O)(Cn1cncn1)c1ccc(Cl)cc1", "note": "(single isomer, unassigned) [Compound 34]", "values": [{"measurement": "minimal effective concentration", "setting": "[1]", "value": 0.63, "unit": "µg/mL"}]}
{"smiles": "COC(n1cccn1)C(O)(Cn1ccnc1)c1ccc(Cl)cc1", "note": "(single isomer, unassigned) [Compound 35]", "values": [{"measurement": "minimal effective concentration", "setting": "[1]", "value": 0.04, "unit": "µg/mL"}, {"measurement": "responders at 50 mg/kg", "setting": "[2]", "value": 25, "unit": "%"}]}
{"smiles": "COC(n1cccn1)C(O)(Cn1ccnc1)c1ccc(Cl)cc1", "note": "(single isomer, unassigned) [Compound 36]", "values": [{"measurement": "Inhibition for Pseudomyselium Formation of Candida albicans (MEC, μg/ml)", "setting": "[1]", "value": 0.08, "unit": "µg/mL"}, {"measurement": "Therapeutic Effect (%)", "setting": "[2]", "value": 37.5, "unit": "%"}]}
{"smiles": "COC(n1cccn1)C(O)(Cn1cncn1)c1ccc(Cl)cc1", "note": "(single isomer, unassigned) [Compound 37]", "values": [{"measurement": "Inhibition for Pseudomyselium Formation of Candida albicans (MEC, μg/ml)", "setting": "[1]", "value": 0.63, "unit": "µg/mL"}, {"measurement": "responders at 50 mg/kg", "setting": "[2]", "value": 62.5, "unit": "%"}]}
{"smiles": "COC(n1cccn1)C(O)(Cn1cccn1)c1ccc(Cl)cc1", "note": "(single isomer, unassigned) [Compound 38]", "values": [{"measurement": "minimal effective concentration", "setting": "[1]", "value": 0.31, "unit": "µg/mL"}, {"measurement": "responders at 50 mg/kg", "setting": "[2]", "value": 25, "unit": "%"}]}
{"smiles": "COC(n1cncn1)C(O)(Cn1ccnc1)c1ccc(F)cc1F", "note": "(single isomer, unassigned) [Compound 40]", "values": [{"measurement": "responders at 50 mg/kg", "setting": "[2]", "value": 37.5, "unit": "%"}]}
{"smiles": "COC(n1cncn1)C(O)(Cn1ccnc1)c1ccc(Cl)cc1Cl", "note": "(single isomer, unassigned) [Compound 44]", "values": [{"measurement": "responders at 50 mg/kg", "setting": "[2]", "value": 12.5, "unit": "%"}]}
{"smiles": "COC(n1ccnc1C)C(O)(Cn1cncn1)c1ccc(Cl)cc1", "note": "(single isomer, unassigned) [Compound 45]", "values": [{"measurement": "responders at 50 mg/kg", "setting": "[2]", "value": 37.5, "unit": "%"}]}
{"smiles": "COC(n1cnc(C)c1)C(O)(Cn1cncn1)c1ccc(Cl)cc1", "note": "(single isomer, unassigned) [Compound 46]", "values": [{"measurement": "minimal effective concentration", "setting": "[1]", "value": 0.08, "unit": "µg/mL"}, {"measurement": "responders at 50 mg/kg", "setting": "[2]", "value": 12.5, "unit": "%"}]}
{"smiles": "COC(n1cncn1)C(O)(Cn1cncn1)c1ccc(F)cc1F", "note": "(single isomer, unassigned) [Compound 47, 2-(2,4-Difluorophenyl)-1-methoxy-1,3-bis(1H-1,2,4-tri-azol-1-yl)-2-propanol]", "values": [{"measurement": "Inhibition for Pseudomyselium Formation of Candida albicans (MEC, μg/ml)", "setting": "[1]", "value": 0.31, "unit": "µg/mL"}]}
{"smiles": "COC(n1cccn1)C(O)(Cn1cncn1)c1ccc(F)cc1F", "note": "(single isomer, unassigned) [Compound 49]", "values": [{"measurement": "minimal effective concentration", "setting": "[1]", "value": 0.31, "unit": "µg/mL"}, {"measurement": "responders at 50 mg/kg", "setting": "[2]", "value": 75, "unit": "%"}]}
{"smiles": "COC(n1cncn1)C(O)(Cn1cncn1)c1ccccc1F", "note": "(single isomer, unassigned) [Compound 51]", "values": [{"measurement": "minimal effective concentration", "setting": "[1]", "value": 0.63, "unit": "µg/mL"}]}
{"smiles": "CCOC(n1cncn1)C(O)(Cn1cncn1)c1ccc(Cl)cc1Cl", "note": "(centres unmarked) [Compound 54]", "values": [{"measurement": "responders at 50 mg/kg", "setting": "[2]", "value": 87.5, "unit": "%"}]}
